Laboratory results as given in patent US6310091A, “Fungicidal saponin, CAY-1, and isolation thereof from Capsium species fruit” (The United States of America as represented by the …, priority 2000, dated 2001).
Read-outs that look alike come from different tables or passages of the source.

Assays:
Pneumocystis carinii = assay: Effect on Pneumocystis carinii viability (ATP-driven bioluminescent assay); type: cell-based; settings: Pneumocystis carinii, read-out: Percent of Control Mean
Description: 3. Pneumocystis carinii. The effect of CAY-1 on Pneumocystis carinii was determined as described previously [Cushion et al., Antimicrob. Agents Chemother., 1997, 41:379-384, herein incorporated by reference]. This assay is based on an ATP-driven bioluminescent reaction and was used to determine the concentration of CAY-1 which decreased the P. carinii ATP pools.

Candida species = settings: a number of Candida species; cited from earlier work

Work on `CC1(C)S[C@@H]2[C@H](NC(=O)[C@H](N)c3ccccc3)C(=O)N2[C@H]1C(=O)O` [Ampicillin, reference compound] yielded an activity at 29 µM (Pneumocystis carinii; 24 h, Day 1, 10 μg/ml, 29 μM) of 96%, an activity at 29 µM (Pneumocystis carinii; 48 h, Day 2, 10 μg/ml, 29 μM) of 94.7% and an activity at 29 µM (Pneumocystis carinii; 72 h, Day 3, 10 μg/ml, 29 μM) of 94.8%.

Work on `N=C(N)c1ccc(OCCCCCOc2ccc(C(=N)N)cc2)cc1` [Pentamidine, reference compound] yielded an activity at 2.9 µM (Pneumocystis carinii; 24 h) of 46.2%, an activity at 29 µM (Pneumocystis carinii; 24 h) of 5.4% and an activity at 2.9 µM (Pneumocystis carinii; 48 h) of 22%. The activity at 29 µM (Pneumocystis carinii; 48 h) was 3.5%, the activity at 2.9 µM (Pneumocystis carinii; 72 h) was 3.9% and the activity at 29 µM (Pneumocystis carinii; 72 h) was 1.2%.

In the case of `CC1(C)[C@@H](O[C@@H]2OC[C@H](O[C@@H]3O[C@H](CO)[C@@H](O)[C@H](O)[C@H]3O[C@@H]3OC[C@H](O)[C@H](O)[C@H]3O)[C@H](O)[C@H]2O[C@@H]2O[C@H](CO)[C@@H](O)[C@H](O)[C@H]2O)CC[C@]2(C)[C@H]3CC[C@]45OC[C@@]6(CC[C@](C)(C=O)C[C@H]64)[C@H](O)C[C@@]5(C)[C@]3(C)CC[C@@H]12` [deglucocyclamin], the inhibitory properties (Candida species) is listed as “inhibitory properties”.

For cyclainorin, the inhibitory properties (Candida species) is listed as “inhibitory properties”.
